From ChEMBL document CHEMBL1201862, “PubChem BioAssay data set” (2004)
The source made the active and inactive calls.

Tests used:
[1] = Trypanosoma cruzi growth suppression in host cells – NIH3T3 host cells, beta-gal luminescence, confirmation (AID 2044); format: functional, cell-based;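 note: intracellular parasites grown in NIH/3T3 mouse fibroblasts as host cells; luminescent beta-galactosidase reporter signal from transgenic T. cruzi replicating inside host cells; inhibitors lower the luminescence signal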
[2] = NIH3T3 cell viability loss – ATP luminescence, mouse fibroblasts, counter-screen, dose response (AID 2010); format: functional, cell-based;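 note: cells exposed to compound for about 90 hours before reading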
[3] = viability loss in THP-1 monocytes – THP-1 cells, cytotoxicity control for Vif-APOBEC3G degradation inhibitor project, dose response (AID 1117359); format: functional; settings: THP-1
[4] = target: Heat shock protein HSP 90-alpha (Homo sapiens, UniProt P07900); format: functional, organism-based
[5] = target: T1, Caspase-6 (Homo sapiens, UniProt P55212); assay: inhibition of CASP6 peptide cleavage – biochemical, VEID-R110 fluorescence, cherry-pick, dose response (AID 720632)
T1 sequence (P55212 whole entry): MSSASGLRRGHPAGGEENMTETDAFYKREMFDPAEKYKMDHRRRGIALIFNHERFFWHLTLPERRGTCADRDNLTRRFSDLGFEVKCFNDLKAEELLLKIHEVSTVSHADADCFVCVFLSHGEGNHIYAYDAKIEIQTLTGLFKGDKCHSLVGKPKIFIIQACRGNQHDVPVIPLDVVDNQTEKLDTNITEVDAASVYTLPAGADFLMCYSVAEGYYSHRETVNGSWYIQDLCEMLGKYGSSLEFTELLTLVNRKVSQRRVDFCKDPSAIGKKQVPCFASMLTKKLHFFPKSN

[6] = target: T2, Oxysterols receptor LXR-beta (Homo sapiens, UniProt P55055); format: functional, cell-based;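 note: agonist activity at LXR measured by a cell-based luminescence readout across a dose range, run as a counterscreen for daf-12 agonists; HEK293 cells with Gal4-LXR fusion and GAL4-driven luciferase reporter; potency for activation of Gal4-LXR reporter so compounds are agonists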
T2 sequence (P55055 whole entry): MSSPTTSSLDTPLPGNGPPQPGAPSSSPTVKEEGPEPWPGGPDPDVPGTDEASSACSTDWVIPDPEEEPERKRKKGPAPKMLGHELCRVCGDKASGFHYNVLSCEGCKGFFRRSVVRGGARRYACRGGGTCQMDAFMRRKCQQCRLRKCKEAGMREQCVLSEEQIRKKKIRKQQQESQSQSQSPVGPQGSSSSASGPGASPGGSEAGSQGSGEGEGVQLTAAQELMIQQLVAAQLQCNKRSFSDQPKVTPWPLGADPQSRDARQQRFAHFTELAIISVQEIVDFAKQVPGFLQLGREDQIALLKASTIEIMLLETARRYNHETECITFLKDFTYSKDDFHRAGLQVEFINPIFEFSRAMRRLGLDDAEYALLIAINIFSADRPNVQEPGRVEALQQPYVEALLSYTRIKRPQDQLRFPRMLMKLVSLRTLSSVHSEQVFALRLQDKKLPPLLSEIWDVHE

[7] = target: Albumin (Bos taurus, UniProt P02769); assay: Counterscreen for inhibitors of T-cell receptor (TCR)-CD3 interaction: Fluorescence-based biochemical high throughput dose response assay to identify inhibitors of T-cell receptor (TCR)-CD3 interaction using a TAMRA-labeled BSA probe.; format: functional
Albumin, sequence (P02769 whole entry): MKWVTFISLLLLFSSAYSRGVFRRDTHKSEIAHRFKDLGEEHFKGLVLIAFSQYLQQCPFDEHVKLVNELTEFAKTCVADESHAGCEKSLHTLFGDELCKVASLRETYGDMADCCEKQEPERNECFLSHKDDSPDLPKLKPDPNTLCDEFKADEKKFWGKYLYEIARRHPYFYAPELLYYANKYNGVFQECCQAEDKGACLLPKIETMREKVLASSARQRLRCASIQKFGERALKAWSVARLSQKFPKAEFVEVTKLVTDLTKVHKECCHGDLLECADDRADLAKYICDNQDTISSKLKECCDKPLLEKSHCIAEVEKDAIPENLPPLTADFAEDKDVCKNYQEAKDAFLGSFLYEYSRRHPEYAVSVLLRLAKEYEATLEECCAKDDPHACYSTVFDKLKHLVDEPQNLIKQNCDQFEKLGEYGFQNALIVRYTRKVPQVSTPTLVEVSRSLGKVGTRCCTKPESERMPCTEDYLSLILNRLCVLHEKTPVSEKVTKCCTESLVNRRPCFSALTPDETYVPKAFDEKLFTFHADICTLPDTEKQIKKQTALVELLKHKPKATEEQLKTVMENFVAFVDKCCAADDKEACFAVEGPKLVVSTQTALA

[8] = NIH-3T3 fibroblast cytotoxicity, dose response, cytotoxicity control, cell-based, fluorescence, Alamar Blue, secondary assay (AID 2327); format: functional;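 note: NIH-3T3 mouse fibroblasts cultured with fluconazole at 8 µg/mL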
[9] = target: Induced myeloid leukemia cell differentiation protein Mcl-1 (Homo sapiens, UniProt Q07820); format: functional
Induced myeloid leukemia cell differentiation protein Mcl-1, sequence (Q07820 whole entry): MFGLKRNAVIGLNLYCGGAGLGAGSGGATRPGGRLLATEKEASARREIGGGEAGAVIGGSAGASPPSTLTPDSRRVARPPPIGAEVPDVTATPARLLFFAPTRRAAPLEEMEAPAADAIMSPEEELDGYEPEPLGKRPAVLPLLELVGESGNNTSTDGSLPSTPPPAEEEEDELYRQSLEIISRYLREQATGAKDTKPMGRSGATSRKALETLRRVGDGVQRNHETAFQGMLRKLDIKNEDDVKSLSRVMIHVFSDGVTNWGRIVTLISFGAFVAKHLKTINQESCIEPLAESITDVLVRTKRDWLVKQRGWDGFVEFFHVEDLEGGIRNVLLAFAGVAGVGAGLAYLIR

[10] = system: INS1; assay: INS-1E survival protection against cytokine death – cell-based, luminescence, retest, dose response (AID 449756); format: functional; settings: Rattus norvegicus;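 note: cell death triggered by IL-1 beta plus TNF-alpha plus IFN-gamma mixture; protective hits raise ATP signal compared with cytokine alone wells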
[11] = fluconazole-exposed Candida albicans growth modulators – fluorescence, retest, confirmation (AID 2467); format: functional, cell-based
[12] = system: H9c2; assay: cells; format: functional, cell-based; settings: Rattus norvegicus, H9c2, Myocardium;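 note: confirmatory concentration-response retest of ultra-high-throughput screening hits for modulation of myocardial damage; cell death induced by hydrogen peroxide oxidative stress; compound pretreatment for 60 min then peroxide exposure for 2 h; potency is for protecting the cells against peroxide damage rather than for killing them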
[13] = target: T3, Aminopeptidase N (Plasmodium falciparum FcB1/Columbia, UniProt O96935); assay: malaria alanyl aminopeptidase activity blockers – biochemical, fluorogenic H-Leu-NHMec substrate, 1536-well (AID 1445); set-up: species or system Plasmodium falciparum 3D7, 3D7
T3 sequence (O96935 whole entry): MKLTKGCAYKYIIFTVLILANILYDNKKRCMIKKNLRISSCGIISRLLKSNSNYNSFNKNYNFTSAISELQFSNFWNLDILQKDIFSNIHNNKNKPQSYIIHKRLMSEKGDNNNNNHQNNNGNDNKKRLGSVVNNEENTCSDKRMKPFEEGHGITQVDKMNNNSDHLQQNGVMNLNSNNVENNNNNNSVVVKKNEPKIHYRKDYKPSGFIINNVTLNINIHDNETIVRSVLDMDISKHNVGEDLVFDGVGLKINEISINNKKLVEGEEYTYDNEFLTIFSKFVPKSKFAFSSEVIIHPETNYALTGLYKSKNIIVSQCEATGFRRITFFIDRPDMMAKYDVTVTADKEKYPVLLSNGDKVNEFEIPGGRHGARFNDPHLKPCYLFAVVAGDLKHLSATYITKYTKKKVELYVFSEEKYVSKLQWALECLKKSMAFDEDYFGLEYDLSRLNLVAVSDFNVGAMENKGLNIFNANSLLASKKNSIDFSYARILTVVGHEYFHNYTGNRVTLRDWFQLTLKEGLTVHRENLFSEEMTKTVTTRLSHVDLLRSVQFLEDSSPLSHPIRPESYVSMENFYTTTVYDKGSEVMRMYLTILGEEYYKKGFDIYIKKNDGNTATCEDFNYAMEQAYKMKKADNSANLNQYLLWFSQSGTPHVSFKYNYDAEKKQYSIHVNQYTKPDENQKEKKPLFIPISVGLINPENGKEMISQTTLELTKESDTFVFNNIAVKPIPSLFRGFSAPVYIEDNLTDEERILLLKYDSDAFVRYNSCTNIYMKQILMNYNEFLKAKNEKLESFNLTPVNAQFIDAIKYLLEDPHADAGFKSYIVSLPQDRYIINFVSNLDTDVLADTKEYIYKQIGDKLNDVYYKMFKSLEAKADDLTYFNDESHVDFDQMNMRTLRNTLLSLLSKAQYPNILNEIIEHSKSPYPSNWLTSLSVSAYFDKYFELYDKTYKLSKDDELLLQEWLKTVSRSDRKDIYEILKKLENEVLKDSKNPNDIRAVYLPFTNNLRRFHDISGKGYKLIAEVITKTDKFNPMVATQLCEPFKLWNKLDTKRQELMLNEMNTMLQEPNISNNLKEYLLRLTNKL

[14] = cells; format: functional, cell-based
[15] = cells; format: functional, cell-based; remark: listed apart in the source
[16] = target: Cytochrome P450 2C9 (Homo sapiens, UniProt P11712)
Cytochrome P450 2C9, sequence (P11712 whole entry): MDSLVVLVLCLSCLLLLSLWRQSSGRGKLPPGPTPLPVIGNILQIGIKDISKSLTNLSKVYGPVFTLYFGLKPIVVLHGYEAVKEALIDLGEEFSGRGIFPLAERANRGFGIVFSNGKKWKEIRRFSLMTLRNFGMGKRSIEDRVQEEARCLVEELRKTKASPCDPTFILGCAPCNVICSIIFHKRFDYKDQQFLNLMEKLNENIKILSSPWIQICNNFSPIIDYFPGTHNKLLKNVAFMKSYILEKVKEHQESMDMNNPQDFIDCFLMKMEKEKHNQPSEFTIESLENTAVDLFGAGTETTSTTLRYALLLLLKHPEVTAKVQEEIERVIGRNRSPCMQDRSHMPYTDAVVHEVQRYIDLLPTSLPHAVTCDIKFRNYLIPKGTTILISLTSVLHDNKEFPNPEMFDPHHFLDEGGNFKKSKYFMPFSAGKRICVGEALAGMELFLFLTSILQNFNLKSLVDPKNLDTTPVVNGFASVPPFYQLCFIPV

[17] = target: Cytochrome P450 2C19 (Homo sapiens, UniProt P33261); assay: Cytochrome panel assay with activity outcomes. Panel member name: p450-cyp2c19 Compounds with AC50 equal or less than 10 uM are considered active; format: functional; settings: read-out: AC50
Cytochrome P450 2C19, sequence (P33261 whole entry): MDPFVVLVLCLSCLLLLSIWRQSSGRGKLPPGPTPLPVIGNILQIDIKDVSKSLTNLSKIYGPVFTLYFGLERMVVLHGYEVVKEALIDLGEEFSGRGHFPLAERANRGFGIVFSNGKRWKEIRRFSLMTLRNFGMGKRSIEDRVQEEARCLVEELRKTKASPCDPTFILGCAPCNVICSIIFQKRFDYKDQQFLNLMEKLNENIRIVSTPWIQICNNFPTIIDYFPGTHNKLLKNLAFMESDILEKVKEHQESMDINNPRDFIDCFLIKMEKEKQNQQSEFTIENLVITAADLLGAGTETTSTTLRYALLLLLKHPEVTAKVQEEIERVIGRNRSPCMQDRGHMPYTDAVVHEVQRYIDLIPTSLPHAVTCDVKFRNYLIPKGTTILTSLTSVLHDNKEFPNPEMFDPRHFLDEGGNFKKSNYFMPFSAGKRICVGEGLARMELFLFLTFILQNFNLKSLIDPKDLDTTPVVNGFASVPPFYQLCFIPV

[18] = target: T4, fMet-Leu-Phe receptor (Homo sapiens, UniProt P21462); assay: formyl peptide receptor binders – dose response (AID 519); format: functional
T4 sequence (P21462 whole entry): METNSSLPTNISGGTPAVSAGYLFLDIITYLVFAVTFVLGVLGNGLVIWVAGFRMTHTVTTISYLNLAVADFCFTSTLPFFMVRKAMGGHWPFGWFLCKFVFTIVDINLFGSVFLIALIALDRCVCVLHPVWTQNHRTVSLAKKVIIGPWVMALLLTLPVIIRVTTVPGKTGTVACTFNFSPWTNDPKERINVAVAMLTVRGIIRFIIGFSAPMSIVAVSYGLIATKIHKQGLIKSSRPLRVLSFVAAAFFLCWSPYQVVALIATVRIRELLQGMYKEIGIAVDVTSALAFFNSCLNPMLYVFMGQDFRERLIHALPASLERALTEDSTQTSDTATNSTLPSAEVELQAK

[19] = system: HeLa; assay: viability loss in HeLa cells – cell-based, ATP luminescence, cherry-pick samples, cytotoxicity control, dose response (AID 687004); format: functional; settings: Homo sapiens
[20] = T. cruzi growth inhibition in host cells, dose response, cell-based, plate reader, dry powder, set 2 (AID 652275); format: functional
[21] = P. falciparum Dd2 growth inhibitors, dose response, SYBR Green, cherry-picked samples (AID 1159567); format: functional, cell-based
[22] = target: Nonstructural protein 1 (Influenza A virus, UniProt Q194T2); format: functional, Influenza A virus (A/California/07/2009(H1N1))
Nonstructural protein 1, sequence (Q194T2 whole entry): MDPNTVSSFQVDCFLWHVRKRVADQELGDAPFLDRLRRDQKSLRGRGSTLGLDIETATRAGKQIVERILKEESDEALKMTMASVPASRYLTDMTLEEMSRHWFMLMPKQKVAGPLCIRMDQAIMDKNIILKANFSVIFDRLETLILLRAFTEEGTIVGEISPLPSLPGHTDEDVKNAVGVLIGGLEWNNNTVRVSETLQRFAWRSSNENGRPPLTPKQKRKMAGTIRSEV

[23] = target: T5, Zinc finger protein mex-5 (Caenorhabditis elegans, UniProt Q9XUB2); assay: potency of MEX-5 RNA-binding blockers – biochemical, C. elegans, fluorescence polarization, dose response (AID 1960)
T5 sequence (Q9XUB2 whole entry): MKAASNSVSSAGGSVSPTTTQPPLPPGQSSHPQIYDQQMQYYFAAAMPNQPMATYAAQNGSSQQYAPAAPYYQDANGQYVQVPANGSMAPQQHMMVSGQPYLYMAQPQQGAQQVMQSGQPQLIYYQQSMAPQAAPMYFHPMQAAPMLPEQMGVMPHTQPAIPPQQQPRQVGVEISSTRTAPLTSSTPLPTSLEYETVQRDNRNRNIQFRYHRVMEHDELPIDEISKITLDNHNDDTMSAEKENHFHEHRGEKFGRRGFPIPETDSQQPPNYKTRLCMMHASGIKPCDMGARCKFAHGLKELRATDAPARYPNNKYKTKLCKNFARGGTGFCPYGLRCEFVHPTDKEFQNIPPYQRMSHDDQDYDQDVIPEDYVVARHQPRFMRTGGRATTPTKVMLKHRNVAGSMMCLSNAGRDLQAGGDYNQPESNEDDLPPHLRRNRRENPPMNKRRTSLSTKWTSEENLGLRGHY

[24] = target: T6, RNA-binding protein pos-1 (Caenorhabditis elegans, UniProt G5EF15); assay: disruptors of C. elegans POS-1 RNA interaction – biochemical, fluorescence polarization, dose response (AID 1964);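 note: purified POS-1 fused to maltose binding protein made in E. coli; potency of compounds blocking POS-1 binding to fluorescent RNA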
T6 sequence (G5EF15 whole entry): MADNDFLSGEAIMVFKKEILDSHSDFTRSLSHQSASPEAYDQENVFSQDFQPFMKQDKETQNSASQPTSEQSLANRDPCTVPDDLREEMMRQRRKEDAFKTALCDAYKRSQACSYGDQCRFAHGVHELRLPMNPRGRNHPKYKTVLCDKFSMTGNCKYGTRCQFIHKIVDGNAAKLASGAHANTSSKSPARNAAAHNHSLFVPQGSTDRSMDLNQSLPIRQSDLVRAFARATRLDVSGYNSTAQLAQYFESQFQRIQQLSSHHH

[25] = target: T7, Streptokinase A (Streptococcus pyogenes serotype M1, UniProt P10520); assay: viability-normalized secreted streptokinase activity reduction – plasminogen activation absorbance, OD405, dose response (AID 1914); format: functional, Streptococcus pyogenes M1 GAS;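 note: secreted streptokinase activity via plasminogen activation per viability signal from cell pellet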
T7 sequence (P10520 whole entry): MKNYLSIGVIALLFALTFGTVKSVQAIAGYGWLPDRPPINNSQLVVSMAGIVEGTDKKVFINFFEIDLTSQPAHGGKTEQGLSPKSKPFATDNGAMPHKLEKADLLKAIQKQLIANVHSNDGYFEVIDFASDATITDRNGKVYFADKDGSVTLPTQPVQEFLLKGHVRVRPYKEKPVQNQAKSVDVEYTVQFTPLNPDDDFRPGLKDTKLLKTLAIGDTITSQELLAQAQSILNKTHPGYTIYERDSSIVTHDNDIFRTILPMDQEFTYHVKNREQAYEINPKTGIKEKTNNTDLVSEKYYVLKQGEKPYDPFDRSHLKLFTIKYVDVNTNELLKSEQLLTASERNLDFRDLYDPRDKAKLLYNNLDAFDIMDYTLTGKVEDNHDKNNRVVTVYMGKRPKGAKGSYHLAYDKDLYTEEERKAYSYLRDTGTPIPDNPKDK

[26] = system: Streptococcus; assay: GAS UMAA2166 growth inhibition – luminescence, BacTiterGlo, counter-screen for streptokinase expression inhibitor project, dose response (AID 1915); format: functional, organism-based; settings: Streptococcus;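 note: potency for reduction of bacterial viability or growth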
[27] = system: Streptococcus sp. 'group A'; assay: Streptococcus pyogenes SK(-)GAS viability under kanamycin – luminescence, BacTiterGlo, confirmation, counter-screen for streptokinase expression inhibitor project, dose response (AID 1900); format: functional, organism-based; settings: Streptococcus sp. 'group A'

O=[N+]([O-])c1cc(CN2CCN(c3cccc(C(F)(F)F)c3)CC2)c2cccnc2c1O
EC50 [1]: 0.493 µM (active)
EC50 [2]: 4.99 µM (active)
CC50 [3]: 2.18 µM (active)
AC50 [4]: 3.53 µM (active)
AC50 [5]: 33.8 µM (active)

C=CCN1C(=O)[C@@H](CC(=O)N2CCSCC2)[C@]2(C(=O)OC)CCCCC=C12
EC50 [6]: > 67.5 µM (inactive)

Cc1cc2ncc(-c3ccccc3)nc2cc1C [AG1295]
EC50 [6]: > 67.5 µM (inactive)

CCOC(=O)N1CCN(C(C(=O)NC2CCCC2)C(C)C)CC1 (centres undefined)
AC50 [5]: 12.2 µM (active)

Cc1cc(/C=N/n2c(COc3ccccc3C)nc3ccccc3c2=O)c(O)c([N+](=O)[O-])c1
EC50 [1]: 1 µM (active)
EC50 [2]: 6.51 µM (active)
IC50 [7]: > 94.1 µM (inactive)
EC50 [8]: > 150 µM (inactive)
IC50 [9]: 4.58 µM (active)
AC50 [10]: 2.99 µM (active)
EC50 [11]: 1.37 µM (active)

CCOC(=O)C1=C(COC(=O)c2ccc([N+](=O)[O-])o2)NC(=O)NC1C (centres undefined)
IC50 [12]: > 79 µM (inactive)
AC50 [5]: 30 µM (active)

O=C(N/N=C/c1cc(Br)ccc1O)c1cccc(N2CCCC2=O)c1
IC50 [7]: > 94.1 µM (inactive)
IC50 [13]: 38.3 µM (active)
EC50 [14]: > 350 µM (not active)
EC50 [15]: 7.74 µM (active)
EC50 [8]: 15.4 µM (inconclusive)
EC50 [11]: 2.33 µM (active)

CCOC(=O)Cc1cc(O)n2nc(C)c(-c3ccccc3)c2n1
AC50 [16]: 39.8 µM (inconclusive)
AC50 [17]: 22.4 µM (inconclusive)
Ki [18]: 36.8 µM (inactive)

COc1ccc(C)cc1NC(=O)C1CCCCC1C(=O)O (centres undefined)
Ki [18]: > 66.7 µM (inactive)

CN1C(=O)c2cc(NC(=O)NC3CCCC3)ccc2OC[C@H]2O[C@@H](CC(=O)NC3CCC3)CC[C@@H]21
AC50 [19]: 25.9 µM (active)

CC(C)(C)[S+]([O-])N1Cc2cc(C(=O)NCc3ccc4c(c3)OCO4)nc(-c3cccc(C#CCC4CCCC4)c3)c2[C@@H]1CCO (some centres undefined)
AC50 [20]: 0.883 µM (active)
AC50 [21]: 3.54 µM (active)

OC[C@H]1[C@H](c2ccc(Br)cc2)[C@@H]2CN(Cc3ccccn3)CCCCN12
AC50 [20]: 3.71 µM (active)

CCN(CC)c1ccc(/C=N/C(C#N)=C(\N)C#N)cc1
IC50 [22]: > 100 µM (active)
EC50 [23]: 114 µM (inconclusive)
EC50 [24]: 281 µM (active)
Ki [18]: > 66.7 µM (inactive)
EC50 [25]: > 150 µM (not active)
EC50 [26]: > 150 µM (not active)
EC50 [27]: > 150 µM (not active)

C[C@H]1CN([C@@H](C)CO)C(=O)c2cccc(NC(=O)c3ccncc3)c2O[C@@H]1CN(C)Cc1cc(Cl)ccc1Cl
AC50 [20]: 0.0573 µM (active)
